Measurements published in US10894784B2, “Heteroarylbenzimidazole compounds” (BAYER PHARMA AKTIENGESELLSCHAFT, priority 2015, dated 2021).

Target: TBK1 (Homo sapiens (Human), UniProt Q9UHD2)
Test: TBK1 low ATP kinase assay (in vitro assay 1)
Assay type: biochemical
Conditions: in vitro assay 1, read-out: TBK1 low ATP kinase assay IC50

Sequence of TBK1 (Q9UHD2 whole entry): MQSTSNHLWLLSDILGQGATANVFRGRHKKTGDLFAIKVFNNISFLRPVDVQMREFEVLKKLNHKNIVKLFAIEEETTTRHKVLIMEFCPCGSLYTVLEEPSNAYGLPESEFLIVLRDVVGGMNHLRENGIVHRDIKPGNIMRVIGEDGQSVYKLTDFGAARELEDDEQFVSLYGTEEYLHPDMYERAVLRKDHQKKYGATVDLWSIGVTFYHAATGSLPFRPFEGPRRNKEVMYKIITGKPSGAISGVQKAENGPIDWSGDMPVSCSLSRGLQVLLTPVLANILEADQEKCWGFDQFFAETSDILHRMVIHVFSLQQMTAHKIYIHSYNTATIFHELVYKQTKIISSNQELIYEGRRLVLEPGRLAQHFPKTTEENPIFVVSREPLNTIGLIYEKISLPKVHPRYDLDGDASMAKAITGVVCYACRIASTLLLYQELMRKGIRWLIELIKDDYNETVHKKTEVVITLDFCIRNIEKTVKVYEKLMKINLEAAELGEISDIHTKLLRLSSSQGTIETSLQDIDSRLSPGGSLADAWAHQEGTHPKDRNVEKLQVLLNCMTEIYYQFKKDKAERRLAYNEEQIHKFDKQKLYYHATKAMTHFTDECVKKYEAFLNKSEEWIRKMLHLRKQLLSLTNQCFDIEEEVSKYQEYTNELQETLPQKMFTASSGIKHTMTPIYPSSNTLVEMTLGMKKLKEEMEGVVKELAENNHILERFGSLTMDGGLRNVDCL

Row | IC50 | SMILES
1 | 20.9 nM | Cc1cc(-c2ccc3nc(Nc4cc(C(C)N5CCN(C(=O)C6(C(F)(F)F)CC6)CC5)ccn4)[nH]c3c2F)ncn1 (single isomer, unassigned) [Example 172.04, {4-[(1R or 1S)-1-(2-{[7-fluoro-6-(6-methylpyrimidin-4-yl)-1H-benzimidazol-2-yl]amino}pyridin-4-yl)ethyl]piperazin-1-yl}[1-(trifluoromethyl)cyclopropyl]methanone]
2 | 197 nM | O=C(CC(F)(F)F)N1CCN(Cc2ccnc(Nc3nc4ccc(-c5ccnc(C(F)(F)F)n5)cc4[nH]3)c2)CC1 [Example 27.04, 3,3,3-trifluoro-1-(4-{[2-({6-[2-(trifluoromethyl)pyrimidin-4-yl]-1H-benzimidazol-2-yl}amino)pyridin-4-yl]methyl}piperazin-1-yl)propan-1-one]
3 | 9.19 nM | Cc1nccc(-c2ccc3nc(Nc4cc(C(C)N5CCN(C(=O)C6CC6)CC5)ccn4)[nH]c3c2)n1 (racemic) [Example 24.04.01, (rac)-cyclopropyl{4-[1-(2-{[6-(2-methylpyrimidin-4-yl)-1H-benzimidazol-2-yl]amino}pyridin-4-yl)ethyl]piperazin-1-yl}methanone]
4 | 12 nM | CCc1cc(-c2ccc3nc(Nc4cc(CN5CCN(C(=O)CC(F)(F)F)CC5)ccn4)[nH]c3c2)ncn1 [Example 91.02, 1-{4-[(2-{[6-(6-ethylpyrimidin-4-yl)-1H-benzimidazol-2-yl]amino}pyridin-4-yl)methyl]piperazin-1-yl}-3,3,3-trifluoropropan-1-one]
5 | 13.6 nM | Cc1cc(CN2CCN(C(=O)C3CC3)CC2)cc(Nc2nc3ccc(-c4ccncn4)cc3[nH]2)n1 [Example 23.02.02, cyclopropyl{4-[(2-methyl-6-{[6-(pyrimidin-4-yl)-1H-benzimidazol-2-yl]amino}pyridin-4-yl)methyl]piperazin-1-yl}methanone]
6 | 2260 nM | COc1nccc(-c2ccc3nc(Nc4cc(CN5CCN(C(=O)C6CC6)CC5)ccn4)[nH]c3c2)c1C [Example 10.01, cyclopropyl{4-[(2-{[6-(2-methoxy-3-methylpyridin-4-yl)-1H-benzimidazol-2-yl]amino}pyridin-4-yl)methyl]piperazin-1-yl}methanone]
7 | 16.5 nM | CC1CC1Cn1cc(-c2ccc3nc(Nc4cc(C(C)N5CCN(C(=O)OC(C)(C)C)CC5)ccn4)[nH]c3c2)cn1 (single isomer, unassigned) [Example 56.01, tert-butyl 4-[(1R or 1S)-1-(2-{[6-(1-{[(1RS,2RS)-2-methylcyclopropyl]methyl}-1H-pyrazol-4-yl)-1H-benzimidazol-2-yl]amino}pyridin-4-yl)ethyl]piperazine-1-carboxylate]
8 | 14 nM | CC(c1ccnc(Nc2nc3ccc(-c4cc(OCC5CC5)ncn4)cc3[nH]2)c1)N1CCN(C(=O)OC(C)(C)C)CC1 (single isomer, unassigned) [Example 85.02, tert-Butyl 4-{(1R or 1S)-1-[2-({6-[6-(cyclopropylmethoxy)pyrimidin-4-yl]-1H-benzimidazol-2-yl}amino)pyridin-4-yl]ethyl}piperazine-1-carboxylate]
9 | 18.3 nM | O=C(CC(F)(F)F)N1CCN(Cc2ccnc(Nc3nc4ccc(-c5ncnc(NC6CC6)c5F)cc4[nH]3)c2)CC1 [Example 192.02, 1-(4-{[2-({6-[6-(cyclopropylamino)-5-fluoropyrimidin-4-yl]-1H-benzimidazol-2-yl}amino)pyridin-4-yl]methyl}piperazin-1-yl)-3,3,3-trifluoropropan-1-one]
10 | 890 nM | Cc1nccc(-c2ccc3nc(Nc4cc(CN5CCN(C(=O)OC(C)(C)C)CC5)ccn4)[nH]c3c2)c1Cl [Example 130.01, tert-butyl 4-[(2-{[6-(3-chloro-2-methylpyridin-4-yl)-1H-benzimidazol-2-yl]amino}pyridin-4-yl)methyl]piperazine-1-carboxylate]
11 | 46.4 nM | COc1cc(-c2ccc3nc(Nc4cc(C(C)N5CCN(C(=O)C6CC6)CC5)ccn4)[nH]c3c2)ncn1 (single isomer, unassigned) [Example 34.03.02.A, cyclopropyl{4-[(1R or 1S)-1-(2-{[6-(6-methoxypyrimidin-4-yl)-1H-benzimidazol-2-yl]amino}pyridin-4-yl)ethyl]piperazin-1-yl}methanone]
12 | 624 nM | COc1cnc(C(=O)N(C)C)cc1-c1ccc2nc(Nc3cc(CN4CCN(C(=O)C5CC5)CC4)ccn3)[nH]c2c1 [Example 08.01, 4-{2-[(4-{[4-(cyclopropylcarbonyl)piperazin-1-yl]methyl}pyridin-2-yl)amino]-1H-benzimidazol-6-yl}-5-methoxy-N,N-dimethylpyridine-2-carboxamide]
13 | 28.3 nM | COc1cnccc1-c1ccc2nc(Nc3cc(CN4CCN(C(=O)C(C)(C)OC)CC4)ccn3)[nH]c2c1 [Example 04.10, 2-methoxy-1-{4-[(2-{[6-(3-methoxypyridin-4-yl)-1H-benzimidazol-2-yl]amino}pyridin-4-yl)methyl]piperazin-1-yl}-2-methylpropan-1-one]
14 | 14.4 nM | Cc1nccc(-c2ccc3nc(Nc4cc(C(C)N5CCN(C(=O)CC6CC6)CC5)ccn4)[nH]c3c2)n1 (racemic) [Example 24.04.04, (rac)-2-cyclopropyl-1-{4-[1-(2-{[6-(2-methylpyrimidin-4-yl)-1H-benzimidazol-2-yl]amino}pyridin-4-yl)ethyl]piperazin-1-yl}ethanone]
15 | 38 nM | CN(c1cc(-c2ccc3nc(Nc4cc(CN5CCN(C(=O)OC(C)(C)C)CC5)ccn4)[nH]c3c2)ncn1)C1CCC1 [Example 156.01, tert-butyl 4-({2-[(6-{6-[cyclobutyl(methyl)amino]pyrimidin-4-yl}-1H-benzimidazol-2-yl)amino]pyridin-4-yl}methyl)piperazine-1-carboxylate]
16 | 13 nM | CC(C)(C)OC(=O)N1CCN(Cc2ccnc(Nc3nc4ccc(-c5cnc(Br)cn5)cc4[nH]3)c2)CC1 [Example 140.01, tert-butyl 4-[(2-{[6-(5-bromopyrazin-2-yl)-1H-benzimidazol-2-yl]amino}pyridin-4-yl)methyl]piperazine-1-carboxylate]
17 | 1500 nM | Cc1noc(-c2ccc3nc(Nc4cc(CN5CCN(c6ccc(C#N)cc6)CC5)ccn4)[nH]c3c2)n1 [Example 101.18, 4-{4-[(2-{[6-(3-methyl-1,2,4-oxadiazol-5-yl)-1H-benzimidazol-2-yl]amino}pyridin-4-yl)methyl]piperazin-1-yl}benzonitrile]
18 | 14 nM | CC(C)N(C)c1cc(-c2ccc3nc(Nc4cc(CN5CCN(C(=O)OC(C)(C)C)CC5)ccn4)[nH]c3c2)ncn1 [Example 153.01, tert-butyl 4-({2-[(6-{6-[methyl(propan-2-yl)amino]pyrimidin-4-yl}-1H-benzimidazol-2-yl)amino]pyridin-4-yl}methyl)piperazine-1-carboxylate]
19 | 13 nM | COc1c(-c2ccc3nc(Nc4cc(CN5CCN(C(=O)CC(F)(F)F)CC5)ccn4)[nH]c3c2)ncnc1N(C)C [Example 107.01.03, 1-(4-{[2-({6-[6-(dimethylamino)-5-methoxypyrimidin-4-yl]-1H-benzimidazol-2-yl}amino)pyridin-4-yl]methyl}piperazin-1-yl)-3,3,3-trifluoropropan-1-one]
20 | 5.48 nM | CC(c1ccnc(Nc2nc3ccc(-c4cc(N5CC(C(F)(F)F)C5)ncn4)cc3[nH]2)c1)N1CCN(C(=O)OC(C)(C)C)CC1 (single isomer, unassigned) [Example 164.01, tert-butyl 4-[(1R or 1S)-1-{2-[(6-{6-[3-(trifluoromethyl)azetidin-1-yl]pyrimidin-4-yl}-1H-benzimidazol-2-yl)amino]pyridin-4-yl}ethyl]piperazine-1-carboxylate]
21 | 5.62 nM | COc1cncnc1-c1ccc2nc(Nc3cc(C(C)N4CCN(C(=O)C5CC5)CC4)ccn3)[nH]c2c1 (single isomer, unassigned) [Example 35.03.03.A, cyclopropyl{4-[(1R or 1S)-1-(2-{[6-(5-methoxypyrimidin-4-yl)-1H-benzimidazol-2-yl]amino}pyridin-4-yl)ethyl]piperazin-1-yl}methanone]
22 | 10.4 nM | COc1cncnc1-c1ccc2nc(Nc3cc(C(C)N4CCN(C(=O)C5CCC5)CC4)ccn3)[nH]c2c1 (racemic) [Example 35.02.04, (rac)-cyclobutyl{4-[1-(2-{[6-(5-methoxypyrimidin-4-yl)-1H-benzimidazol-2-yl]amino}pyridin-4-yl)ethyl]piperazin-1-yl}methanone]
23 | 6.44 nM | O=C(C1CC1)N1CCN(Cc2ccnc(Nc3nc4ccc(-c5cnn(CC(F)(F)F)c5)cc4[nH]3)c2)CC1 [Example 58.01.03, cyclopropyl(4-{[2-({6-[1-(2,2,2-trifluoroethyl)-1H-pyrazol-4-yl]-1H-benzimidazol-2-yl}amino)pyridin-4-yl]methyl}piperazin-1-yl)methanone]
24 | 38 nM | COc1cncnc1-c1ccc2nc(Nc3cc(CN4CCN(S(=O)(=O)N(C)C)CC4)ccn3)[nH]c2c1 [Example 35.01.15, 4-[(2-{[6-(5-methoxypyrimidin-4-yl)-1H-benzimidazol-2-yl]amino}pyridin-4-yl)methyl]-N,N-dimethylpiperazine-1-sulfonamide]
25 | 4.31 nM | CC(C)Oc1cnccc1-c1ccc2nc(Nc3cc(CN4CCN(C(=O)CC(F)(F)F)CC4)ccn3)[nH]c2c1 [Example 06.01, 3,3,3-trifluoro-1-(4-{[2-({6-[3-(propan-2-yloxy)pyridin-4-yl]-1H-benzimidazol-2-yl}amino)pyridin-4-yl]methyl}piperazin-1-yl)propan-1-one]
26 | 4.15 nM | Cc1cc(-c2ccc3nc(Nc4cc(C(C)N5CCN(C(=O)C6CCC6)CC5)ccn4)[nH]c3c2)ncn1 (single isomer, unassigned) [Example 30.03.02.A, cyclobutyl{4-[(1R or 1S)-1-(2-{[6-(6-methylpyrimidin-4-yl)-1H-benzimidazol-2-yl]amino}pyridin-4-yl)ethyl]piperazin-1-yl}methanone]

Row | SMILES | IC50
27 | Cc1noc(-c2ccc3nc(Nc4cc(CN5CCN(C(=O)CC6CC6)CC5)ccn4)[nH]c3c2)n1 [Example 16.01.03, 2-cyclopropyl-1-{4-[(2-{[6-(3-methyl-1,2,4-oxadiazol-5-yl)-1H-benzimidazol-2-yl]amino}pyridin-4-yl)methyl]piperazin-1-yl}ethanone] | 115 nM
